One data set has as its target hCA XII (Homo sapiens, UniProt O43570). The data set can be described thus: hCA XII inhibition, stopped-flow assay. The data set is classed as biochemical. The note with it: for Selectivity Analysis hCA I/XII / Selectivity Analysis hCA II/XII: selectivity index (SI); for Selectivity Analysis hCA I/XII: ratio of Ki hCA I to Ki hCA XII; for Selectivity Analysis hCA II/XII: ratio of Ki hCA II to Ki hCA XII; for Ki: stopped-flow technique, mean from three different assays, errors ±5–10%.

The next data set addresses hCA IX (Homo sapiens, UniProt Q16790). Kind of data set: hCA IX inhibition, stopped-flow assay. The data set is classed as biochemical. The note with it: for Selectivity Analysis hCA I/IX / Selectivity Analysis hCA II/IX: selectivity index (SI); for Selectivity Analysis hCA I/IX: ratio of Ki hCA I to Ki hCA IX; for Selectivity Analysis hCA II/IX: ratio of Ki hCA II to Ki hCA IX; for Ki: stopped-flow technique, mean from three different assays, errors ±5–10%.

In the next data set the target is hCA I (Homo sapiens, UniProt P00915). Kind of data set: hCA I inhibition, stopped-flow assay. The data set is classed as biochemical. Conditions: stopped-flow technique; mean from three different assays, errors ±5–10%.
Another data set has as its target hCA II (Homo sapiens, UniProt P00918). The data set can be described thus: hCA II inhibition, stopped-flow assay. The format is biochemical. Conditions: stopped-flow technique; mean from three different assays, errors ±5–10%.

Values joined by “and” are separate entries in the source; they are usually repeats but may differ in a detail not shown here. Equal values may be shown once.

hCA XII, sequence (O43570 25-354): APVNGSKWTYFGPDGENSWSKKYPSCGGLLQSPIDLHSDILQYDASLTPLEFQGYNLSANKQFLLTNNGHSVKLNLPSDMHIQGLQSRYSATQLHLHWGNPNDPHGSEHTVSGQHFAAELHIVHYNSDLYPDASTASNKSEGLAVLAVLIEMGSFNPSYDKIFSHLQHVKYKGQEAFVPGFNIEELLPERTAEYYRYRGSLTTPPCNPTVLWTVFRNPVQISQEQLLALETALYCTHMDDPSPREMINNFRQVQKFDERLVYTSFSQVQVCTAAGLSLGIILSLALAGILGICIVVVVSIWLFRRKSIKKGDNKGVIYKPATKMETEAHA
hCA I, sequence (P00915 whole entry): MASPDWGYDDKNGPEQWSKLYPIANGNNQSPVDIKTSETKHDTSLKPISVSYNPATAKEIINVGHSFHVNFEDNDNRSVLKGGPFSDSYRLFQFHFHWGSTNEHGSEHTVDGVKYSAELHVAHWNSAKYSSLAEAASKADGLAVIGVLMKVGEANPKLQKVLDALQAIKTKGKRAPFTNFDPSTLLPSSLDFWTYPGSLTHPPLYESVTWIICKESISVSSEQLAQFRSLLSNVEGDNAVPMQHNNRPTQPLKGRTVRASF

`CN(C)c1ccc(C=NNC(=O)CSc2nc3ccccc3c(=O)n2CCc2ccc(S(N)(=O)=O)cc2)cc1` [Compound 15, 4-(2-(2-((2-(2-(4-(Dimethylamino)benzylidene)hydrazineyl)-2-oxoethyl)thio)-4-oxoquinazolin-3(4H)-yl)ethyl)benzenesulfonamide] gave a melting point of 280 to 281 °C. Besides, on hCA XII, the “Selectivity Analysis hCA I/XII” value was 85.58, the “Selectivity Analysis hCA II/XII” value came out at 12.07 and the Ki came to 6.8 nM. In addition, at hCA IX, the “Selectivity Analysis hCA I/IX” value is listed as 6.56; the “Selectivity Analysis hCA II/IX” value is 0.92; the Ki was 89.1 nM and 88.6 nM. On hCA I, this compound yielded a Ki of 582 nM. At hCA II, this compound yielded a Ki of 82.1 nM.

The compound `NS(=O)(=O)c1ccc(CCn2c(SCC(=O)NN=Cc3cccnc3)nc3ccccc3c2=O)cc1` [Compound 16, 4-(2-(4-Oxo-2-((2-oxo-2-(2-(pyridin-3-ylmethylene)hydrazineyl)ethyl)thio)quinazolin-3(4H)-yl)ethyl)benzenesulfonamide] returned a melting point of 263 to 264 °C. Also, at hCA XII, the “Selectivity Analysis hCA I/XII” value is reported as 10.0, the “Selectivity Analysis hCA II/XII” value was determined as 1.14 and the affinity corresponds to a Ki of 20.8 nM. Also, on hCA IX, the “Selectivity Analysis hCA I/IX” value is 5.5, the “Selectivity Analysis hCA II/IX” value was 0.63 and the Ki was 37.8 nM. Besides, on hCA I, the affinity corresponds to a Ki of 208 nM. The compound further displayed a Ki on hCA II of 23.8 nM.

`CC(=NNC(=O)CSc1nc2ccccc2c(=O)n1CCc1ccc(S(N)(=O)=O)cc1)c1ccccc1` [Compound 17, 4-(2-(4-Oxo-2-((2-oxo-2-(2-(1-phenylethylidene)hydrazineyl)ethyl)thio)quinazolin-3(4H)-yl)ethyl)benzenesulfonamide] registered a melting point of 260 to 261 °C. On hCA XII, the “Selectivity Analysis hCA I/XII” value is given as 9.78, the “Selectivity Analysis hCA II/XII” value stood at 5.31 and the Ki was 12.7 nM. Besides, on hCA IX, the “Selectivity Analysis hCA I/IX” value came to 2.23, the “Selectivity Analysis hCA II/IX” value is listed as 1.21 and affinity was put at a Ki of 55.7 nM. This compound had an inhibition constant Ki on hCA I of 124 nM. The affinity at hCA II corresponds to a Ki of 67.5 nM.

On to `CC(=NNC(=O)CSc1nc2ccccc2c(=O)n1CCc1ccc(S(N)(=O)=O)cc1)c1ccccc1N` [Compound 18, 4-(2-(2-((2-(2-(1-(2-Aminophenyl)ethylidene)hydrazineyl)-2-oxoethyl)thio)-4-oxoquinazolin-3(4H)-yl)ethyl)benzenesulfonamide], for which the melting point lay in the range of 264 to 265 °C. Also, at hCA XII, the “Selectivity Analysis hCA I/XII” value was 45.04, the “Selectivity Analysis hCA II/XII” value stood at 1.92 and the Ki turned out to be 18.3 nM. For the same compound, at hCA IX, the “Selectivity Analysis hCA I/IX” value worked out at 22.46, the “Selectivity Analysis hCA II/IX” value turned out to be 0.96 and the inhibition constant (Ki) was 36.7 nM. On hCA I, the affinity, expressed as Ki, was 824 nM. For the same compound, the Ki on hCA II turned out to be 35.2 nM.

With `CC(=NNC(=O)CSc1nc2ccccc2c(=O)n1CCc1ccc(S(N)(=O)=O)cc1)c1ccc(N)cc1` [Compound 19, 4-(2-(2-((2-(2-(1-(4-Aminophenyl)ethylidene)hydrazineyl)-2-oxoethyl)thio)-4-oxoquinazolin-3(4H)-yl)ethyl)benzenesulfonamide], the melting point lay within 308 to 309 °C. Besides, on hCA XII, the “Selectivity Analysis hCA I/XII” value was 27.64, the “Selectivity Analysis hCA II/XII” value came to 3.72 and the inhibition constant Ki was determined as 15.9 nM. Moreover, on hCA IX, the “Selectivity Analysis hCA I/IX” value worked out at 75.77, the “Selectivity Analysis hCA II/IX” value came to 10.22 and the Ki came to 5.8 nM. On hCA I, the affinity corresponds to a Ki of 439 nM. Besides, the Ki at hCA II amounted to 59.3 nM.

`CC(=NNC(=O)CSc1nc2ccccc2c(=O)n1CCc1ccc(S(N)(=O)=O)cc1)c1ccc(Br)cc1` [Compound 20, 4-(2-(2-((2-(2-(1-(4-Bromophenyl)ethylidene)hydrazineyl)-2-oxoethyl)thio)-4-oxoquinazolin-3(4H)-yl)ethyl)benzenesulfonamide]: the melting point lay in the range of 302 to 303 °C. At hCA XII, the “Selectivity Analysis hCA I/XII” value came to 15.27, the “Selectivity Analysis hCA II/XII” value amounted to 7.86 and the Ki came to 88.8 nM. At hCA IX, the “Selectivity Analysis hCA I/IX” value is recorded as 13.6, the “Selectivity Analysis hCA II/IX” value stood at 7.01 and the Ki is 99.6 nM. The affinity at hCA I, expressed as Ki, was 1360 nM. This compound came in with an inhibitory constant (Ki) at hCA II of 698 nM.

Take `CC(=NNC(=O)CSc1nc2ccccc2c(=O)n1CCc1ccc(S(N)(=O)=O)cc1)c1ccccc1Cl` [Compound 21, 4-(2-(2-((2-(2-(1-(2-Chlorophenyl)ethylidene)hydrazineyl)-2-oxoethyl)thio)-4-oxoquinazolin-3(4H)-yl)ethyl)benzenesulfonamide]: the melting point is 273 to 275 °C. At hCA XII, the “Selectivity Analysis hCA I/XII” value was 19.74, the “Selectivity Analysis hCA II/XII” value is 5.59 and the Ki was found to be 58 nM. Besides, at hCA IX, the “Selectivity Analysis hCA I/IX” value was determined as 25.27; the “Selectivity Analysis hCA II/IX” value is reported as 7.15; the affinity, expressed as Ki, was 45.3 nM. At hCA I, affinity was put at a Ki of 1140 nM. This compound also came in with a Ki on hCA II of 324 nM.

For `CC(=NNC(=O)CSc1nc2ccccc2c(=O)n1CCc1ccc(S(N)(=O)=O)cc1)c1cccc(Cl)c1` [Compound 22, 4-(2-(2-((2-(2-(1-(3-Chlorophenyl)ethylidene)hydrazineyl)-2-oxoethyl)thio)-4-oxoquinazolin-3(4H)-yl)ethyl)benzenesulfonamide], the melting point was 297 to 298 °C. Also, at hCA XII, the “Selectivity Analysis hCA I/XII” value is on record as 18.49, the “Selectivity Analysis hCA II/XII” value is given as 7.23 and affinity was put at a Ki of 46.9 nM. Moreover, on hCA IX, the “Selectivity Analysis hCA I/IX” value is recorded as 11.51, the “Selectivity Analysis hCA II/IX” value is 4.50 and the inhibitory constant (Ki) was 75.3 nM. On hCA I, this compound returned a Ki of 867 nM. The inhibitory constant (Ki) on hCA II came to 339 nM.

With `CC(=NNC(=O)CSc1nc2ccccc2c(=O)n1CCc1ccc(S(N)(=O)=O)cc1)c1ccc(Cl)cc1` [Compound 23, 4-(2-(2-((2-(2-(1-(4-Chlorophenyl)ethylidene)hydrazineyl)-2-oxoethyl)thio)-4-oxoquinazolin-3(4H)-yl)ethyl)benzenesulfonamide], the melting point fell in the range of 278 to 280 °C. At hCA XII, the “Selectivity Analysis hCA II/XII” value was 2.56 and the inhibition constant Ki came out at 61.2 nM. Also, at hCA IX, the “Selectivity Analysis hCA I/IX” value turned out to be 8.67, the “Selectivity Analysis hCA II/IX” value is 2.41 and the inhibition constant (Ki) was found to be 65 nM. The compound also registered an inhibition constant (Ki) on hCA I of 563 nM. For the same compound, on hCA II, the Ki is 157 nM.

In the case of `CC(=NNC(=O)CSc1nc2ccccc2c(=O)n1CCc1ccc(S(N)(=O)=O)cc1)c1ccc(F)cc1` [Compound 24, 4-(2-(2-((2-(2-(1-(4-Fluorophenyl)ethylidene)hydrazineyl)-2-oxoethyl)thio)-4-oxoquinazolin-3(4H)-yl)ethyl)benzenesulfonamide], the melting point was 299 to 300 °C. For the same compound, at hCA XII, the “Selectivity Analysis hCA I/XII” value is given as 7.35, the “Selectivity Analysis hCA II/XII” value is 1.55 and the Ki stood at 25.4 nM. Further, on hCA IX, the “Selectivity Analysis hCA I/IX” value is 6.55; the “Selectivity Analysis hCA II/IX” value was found to be 1.38; the affinity, expressed as Ki, was 28.5 nM. Also, the inhibition constant Ki on hCA I was determined as 187 nM. At hCA II, the inhibitory constant (Ki) came to 39.5 nM.

The compound `CC(=NNC(=O)CSc1nc2ccccc2c(=O)n1CCc1ccc(S(N)(=O)=O)cc1)c1ccc(C)cc1` [Compound 25, 4-(2-(4-Oxo-2-((2-oxo-2-(2-(1-(p-tolyl)ethylidene)hydrazineyl)ethyl)thio)quinazolin-3(4H)-yl)ethyl)benzenesulfonamide] showed a melting point of 288 to 290 °C. Further, on hCA XII, the “Selectivity Analysis hCA I/XII” value came out at 10.90, the “Selectivity Analysis hCA II/XII” value was 2.19 and the affinity corresponds to a Ki of 57.5 nM. For the same compound, at hCA IX, the “Selectivity Analysis hCA I/IX” value turned out to be 14.28, the “Selectivity Analysis hCA II/IX” value worked out at 2.87 and affinity was put at a Ki of 43.9 nM. This compound also gave a Ki on hCA I of 627 nM. On hCA II, the inhibition constant (Ki) worked out at 126 nM.

Turning to `CC(=NNC(=O)CSc1nc2ccccc2c(=O)n1CCc1ccc(S(N)(=O)=O)cc1)c1ccccn1` [Compound 26, 4-(2-(4-Oxo-2-((2-oxo-2-(2-(1-(pyridin-2-yl)ethylidene)hydrazineyl)ethyl)thio)quinazolin-3(4H)-yl)ethyl)benzenesulfonamide], the melting point is 300 to 301 °C. Further, on hCA XII, the “Selectivity Analysis hCA I/XII” value turned out to be 1.85, the “Selectivity Analysis hCA II/XII” value was 0.80 and the affinity corresponds to a Ki of 28.5 nM. On hCA IX, the “Selectivity Analysis hCA I/IX” value turned out to be 0.77, the “Selectivity Analysis hCA II/IX” value was 0.33 and the inhibition constant Ki stood at 68.2 nM. Further, at hCA I, the Ki came out at 52.8 nM. Moreover, on hCA II, the affinity corresponds to a Ki of 22.8 nM.

For orientation: Ki means a dissociation constant, usually derived from enzyme kinetics or from competition with a known ligand. A higher Ki goes with weaker binding. In general, melting point refers to the temperature of the solid-liquid transition.

(Values after article PMC9697198, “Carbonic Anhydrase Inhibition Activities of Schiff’s Bases Based on Quinazoline-Linked Benzenesulfonamide” (Molecules, 2022).)
